Measurements taken from US20020151553A1, “Chemokine receptor antagonists and methods of use therefor” (Millennium Pharmaceuticals, Inc., priority 1996, published 2002).
pIC50: −log10 of the molar value.

Biological target: T1, chemokine receptor (RANTES / MIP-1α binding) on THP-1 cell membranes (Homo sapiens, UniProt P32246)
T1 sequence (P32246 1-355): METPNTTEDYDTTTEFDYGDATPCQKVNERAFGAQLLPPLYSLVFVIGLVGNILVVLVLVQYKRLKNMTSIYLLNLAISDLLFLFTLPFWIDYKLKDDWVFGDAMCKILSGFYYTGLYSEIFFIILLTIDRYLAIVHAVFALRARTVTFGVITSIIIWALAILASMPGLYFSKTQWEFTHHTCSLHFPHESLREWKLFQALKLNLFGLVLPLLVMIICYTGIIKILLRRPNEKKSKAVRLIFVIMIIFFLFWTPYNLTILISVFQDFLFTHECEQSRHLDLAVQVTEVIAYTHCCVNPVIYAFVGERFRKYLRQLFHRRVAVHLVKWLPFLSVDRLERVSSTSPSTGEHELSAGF
Experiment: Receptor binding assay with 125I-RANTES or 125I-MIP-1α as ligand and THP-1 cell membranes
Conditions: not given
Protocol: Membranes were prepared from THP-1 cells (ATCC #TIB202). Cells were harvested by centrifugation, washed twice with PBS (phosphate-buffered saline), and the cell pellets were frozen at −70 to −85° C. […] This procedure results in cell lysis. The suspension was mixed well to resuspend all of the frozen cell pellet. Nuclei and cell debris were removed by centrifugation of 400× g for 10 minutes at 4° C. The supernatant was transferred to a fresh tube and the membrane fragments were collected by centrifugation at 25,000× g for 30 minutes at 4° C. The supernatant was aspirated and the pellet was resuspended in freezing buffer consisting of 10 mM HEPES pH 7.5, 300 mM sucrose, 1 μg/ml each aprotinin, leupeptin, and chymostatin, and 10 μg/ml PMSF approximately 0.1 ml per each 10^8 cells). All clumps were resolved using a minihomogenizer, and the total protein concentration was determined using a protein assay kit (Bio-Rad, Hercules, Calif., cat #500-0002). The membrane solution was then aliquoted and frozen at −70 to −85° C. until needed. Binding Assays utilized the membranes described above.

Molecule	pIC50
N#CC1(CCCN2CCC(O)(c3ccc(Cl)cc3)CC2)c2ccccc2CSc2ccccc21 (centres unmarked) [Example 10, 4-(4-Chlorophenyl)-1-[3-(11-cyano-6,11-dihydrodibenzo[b,e]thiepin-11-yl)propyl] piperidin-4-ol]	7.01
N#CC1(CCCN2CCC(O)(c3ccc(Cl)cc3)CC2)c2ccccc2C[S+]([O-])c2ccccc21 (single isomer, unassigned) [Example 15, 4-(4-Chlorophenyl)-1-[3-(11-cyano-6,11-dihydro-5-oxodibenzo[b,e]thiepin-11-yl)propyl]piperidin-4-ol]	6.21
O=C(CCN1CCC(O)(c2ccc(Cl)cc2)CC1)C1c2ccccc2CCc2ccccc21 [Example 24, 4-(4-Chlorophenyl)-1-[3-(10,11-dihydro-5H-dibenzo[a,d]cycloheptene-5-yl)-3-propioyl]piperidin-4-ol]	6.80
N#CC1(CCCN2CCC(O)(c3ccc(Cl)cc3)CC2)c2ccccc2C[S+]([O-])c2ccccc21 (single isomer, unassigned) [Example 14, 4-(4-Chlorophenyl)-1-[3-(11-cyano-6,11-dihydro-5-oxodibenzo[b,e]thiepin-11-yl)propyl]piperidin-4-ol]	6.55
O=C(NCC1(CCCN2CCC(O)(c3ccc(Cl)cc3)CC2)c2ccccc2CSc2ccccc21)Oc1ccccc1 (centres unmarked) [Example 22]	6.16
N#CC1(CCCN2CCC(O)(c3ccc(Cl)cc3)CC2)c2ccccc2CCc2ccccc21 [Example 2, 4-(4-Chlorophenyl)-1-[3-(5-cyano-10,11-dihydro-5H-dibenzo[a,d]cycloheptene-5-yl)propyl]piperidin-4-ol]	7.28

Same assay, conditions: 125I-RANTES or 125I-MIP-1α as ligand; THP-1 cell membranes; 60 min at room temperature; read-out: IC50 (inhibitor concentration required for 50% inhibition of specific binding)

Molecule	pIC50
N#CC1(CCCN2CCC(O)(c3ccc(Cl)cc3)CC2)c2ccccc2COc2ccc(F)cc21 (centres unmarked) [Example 5, 4-(4-Chlorophenyl)-1-[3-(11-cyano-6,11-dihydro-2-fluorodibenz[b,e]oxepin-11-yl)propyl]piperidin-4-ol]	6.72
Cc1ccc2c(c1)C(C#N)(CCCN1CCC(O)(c3ccc(Cl)cc3)CC1)c1ccccc1CO2 (centres unmarked) [Example 7, 4-(4-Chlorophenyl)-1-[3-(11-cyano-6,11-dihydro-2-methyldibenz[b,e]oxepin-11-yl)propyl]piperidin-4-ol]	6.42
N#CC1(CCCN2CCC(O)(c3ccc(Cl)cc3)CC2)c2ccccc2COc2ccc(Br)cc21 (centres unmarked) [Example 6, 1-[3-(2-Bromo-11-cyano-6,11-dihydrodibenz[b,e]oxepin-11-yl)propyl]-4-(4-chlorophenyl)piperidin-4-ol]	6.52
N#CC1(CCCN2CCC(O)(c3ccc(Cl)cc3)CC2)c2ccccc2CS(=O)(=O)c2ccccc21 (centres unmarked) [Example 16, 4-(4-Chlorophenyl)-1-[3-(11-cyano-6,11-dihydro-5,5-dioxodibenzo[b,e]thiepin-11-yl)propyl]piperidin-4-ol]	7.10
N#CC1(CCCN2CCC(O)(c3ccc(Br)cc3)CC2)c2ccccc2CSc2ccccc21 (centres unmarked) [Example 12, 4-(4-Bromophenyl)-1-[3-(11-cyano-6,11-dihydrodibenzo[b,e]thiepin-11-yl)propyl]piperidi n-4-ol]	7.00
N#CC1(CCCN2CCC(O)(c3ccccc3)CC2)c2ccccc2CSc2ccccc21 (centres unmarked) [Example 11, 1-[3-(1l-Cyano-6,11-dihydrodibenzo[b,e]thiepin-11-yl)propyl]-4-phenylpiperidin-4-ol]	4.96
N#CC1(CCCN2CCC(O)(c3ccc(Cl)cc3)CC2)c2ccccc2CSc2ccc(Br)cc21 (centres unmarked) [Example 13, 1-[3-(2-Bromo-11-cyano-6,11-dihydrodibenzo[b,e]thiepin-11-yl)propyl]-4-(4-chlorophenyl)piperidin-4-ol]	6.42
N#CC1(CCCN2CCC(O)(c3ccc(Cl)cc3)CC2)c2ccccc2COc2ccccc21 (centres unmarked) [Example 3, 4-(4-Chlorophenyl)-1-[3-(11-cyano-6,11-dihydrodibenz[b,e]oxepin-11-yl)propyl]piperidin-4-ol]	6.96
1-[2-[3-[4-(4-chlorophenyl)-4-hydroxypiperidino]propyl]-2-(6,11-dihydrodibenzo[b,e]thiepi n-11-yl)ethyl]-3-(hydroxypropyl)urea [Example 23]	5.66
OC1(c2ccc(Cl)cc2)CCN(CCCC2c3ccccc3COc3ccccc32)CC1 (centres unmarked) [Example 19, 4-(4-Chlorophenyl)-1-[3-(6,11-dihydrodibenz[b,e]oxepin-11-yl)propyl]piperidin-4-ol]	7.23
OC1(c2ccc(Cl)cc2)CCN(CCCC2c3ccccc3CSc3ccccc32)CC1 (centres unmarked) [Example 17, 4-(4-Chlorophenyl)-1-[3-(6,11-dihydrodibenzo[b,e]thiepin-11-yl)propyl]piperidin-4-ol]	7.15
OC1(c2ccc(Cl)cc2)CCN(CCCC2c3ccccc3CCc3ccccc32)CC1 [Example 18, 4-(4-Chlorophenyl)-1-[3-(10,11-dihydro-5H-dibenzo[a,d]cycloheptene-5-yl)propyl]piperidin-4-ol]	7.26
N#CC1(CCCN2CCC(O)(c3ccc(F)cc3)CC2)c2ccccc2COc2ccccc21 (centres unmarked) [Example 4, 1-[3-(11-Cyano-6,11-dihydrodibenz[b,e]oxepin-11-yl)propyl]-4-(4-fluorophenyl)piperidin-4-ol]	6.41
N#CC1(CCCN2CCC(O)(c3ccc(Cl)cc3)CC2)c2ccccc2C=Cc2ccccc21 [Example 1, 4-(4-Chlorophenyl)1-[3-(5-cyano-5H-dibenzo[a,d]cycloheptene-5-yl)propyl]piperidin-4-ol]	7.06
